Measured values published in patent US8343983B2, “Substituted pyrazolo-pyrimidine compounds” (ArQule, Inc., priority 2009, dated 2013).
Like-named read-outs stand apart in the source and are kept apart here.

Tests used:
[1] = tested on: cancer cells; test: MTS assay: inhibition of cell growth (formazan absorbance at 492 nm after 72 hours with test compound); format: cell-based; details: inhibition class
In short: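 DMEM with 1% FBS; cells seeded at 3000/well and grown 18 h at 37 °C, then exposed to compound for 72 h and to MTS/PMS for 4 h. IC50 is the concentration giving a 50% absorbance drop; grades are % inhibition bands.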

| SMILES | melting point | inhibition at 10 µM ([1]; Homo sapiens, DLD-1 cells, read-out: DLD-1, MTS 72 hours at 10 uM) | inhibition at 10 µM ([1]; Homo sapiens, KATO III cells, read-out: KATO III, MTS 72 hours at 10 uM) | inhibition at 10 µM ([1]; Homo sapiens, MDA-MB-231 cells, read-out: MDA-MB-231, MTS 72 hours at 10 uM) | inhibition at 10 µM ([1]; Homo sapiens, NCI-H1299 cells, read-out: NCI-H1299, MTS 72 hours at 10 uM) | inhibition at 10 µM ([1]; Homo sapiens, PC-3 cells, read-out: PC-3, MTS 72 hours at 10 uM) | inhibition at 10 µM ([1]; PACA-2 cells, read-out: PACA-2, MTS 72 hours at 10 uM) |
| --- | --- | --- | --- | --- | --- | --- | --- |
| COc1ccc(CN2CCc3nn(Cc4ccccc4)c4nc(N5CCOCC5)nc2c34)cc1 [Compound 131, 4-(1-benzyl-5-(4-methoxybenzyl)-1,3,4,5-tetrahydro-1,2,5,6,8-pentaazaacenaphthylen-7-yl)morpholine] | 118 to 120 °C |  |  |  |  |  |  |
| COc1ccc(CN2CCCc3n[nH]c4nc(N5CCN(Cc6ccccc6)CC5)nc2c34)cc1 [Compound 254, 4-(4-benzylpiperazin-1-yl)-6-(4-methoxybenzyl)-6,7,8,9-tetrahydro-2H-1,2,3,5,6-pentaazabenzo[cd]azulene] |  | > 79% | > 79% | > 79% | > 79% | > 79% | > 79% |
